Values of other authors as cited in publication PMC3923778 (PLoS Currents, 2014).

System: HD mouse models
Parameters: method as in PMID 19281846, PMID 20923867, PMID 19291221, PMID 17184995
Conditions: ref [5], [7], [14], [15]; cited from earlier work

Row | Compound | disease progression in HD mouse models
1 | COc1ccc(C2CNC(=O)C2)cc1OC1CCCC1 (centres unmarked) [rolipram] | significantly delay disease progression
2 | TP-10 | significantly delay disease progression
